How the values were obtained:
[1] = Half-life period for the hydrolysis to entacopone and […] was determined in a liver homogenate at pH 7.4.; format: ADME, tissue-based
[2] = The half-life period, to be stable in the stomach and liver at pH 5.0, was determined; format: ADME, tissue-based

In the case of `CCN(CC)C(=O)/C(C#N)=C/c1cc(OC(=O)N[C@@H](Cc2ccc(O)c(O)c2)C(=O)OC)c(O)c([N+](=O)[O-])c1`, the half-life [1] was 7 min and the half-life [2] was 66 min.
